Where a chain is given by its changes, count along the chain named.
Columns and labels:
Assay in all cases: isothermal titration calorimetry
Assay type in all cases: binding
AaLpxC [1] = biological target: T1, AaLpxC (Aquifex aeolicus, UniProt O67648, H19A)
T1 construct: gene lpxC; codon-optimised gene in pET-21a (NdeI/XhoI), E. coli BL21(DE3); approx. 32 kDa; Zn2+ enzyme; last five residues LTRLE disordered in crystal
T1 sequence (O67648 1-271 H19A): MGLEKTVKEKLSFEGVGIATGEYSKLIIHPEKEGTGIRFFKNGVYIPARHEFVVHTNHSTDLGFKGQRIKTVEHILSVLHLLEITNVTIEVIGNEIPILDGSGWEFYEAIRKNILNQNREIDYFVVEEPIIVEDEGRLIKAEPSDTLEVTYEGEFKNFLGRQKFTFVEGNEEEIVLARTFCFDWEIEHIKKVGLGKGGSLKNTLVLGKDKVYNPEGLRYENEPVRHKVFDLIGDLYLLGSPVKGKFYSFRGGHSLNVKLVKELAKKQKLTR
Text: (§1) isothermal titration calorimetry on AaLpxC

AaLpxC [2] = biological target: T2, AaLpxC (Aquifex aeolicus, UniProt O67648, I18A)
T2 construct: gene lpxC; codon-optimised gene in pET-21a (NdeI/XhoI), E. coli BL21(DE3); approx. 32 kDa; Zn2+ enzyme; last five residues LTRLE disordered in crystal
T2 sequence (O67648 1-271 I18A): T1 sequence (O67648 1-271 H19A) with I18A, A19H
Text: as §1

AaLpxC [3] = biological target: T3, AaLpxC (Aquifex aeolicus, UniProt O67648, E185A)
T3 construct: gene lpxC; codon-optimised gene in pET-21a (NdeI/XhoI), E. coli BL21(DE3); approx. 32 kDa; Zn2+ enzyme; last five residues LTRLE disordered in crystal
T3 sequence (O67648 1-271 E185A): T1 sequence (O67648 1-271 H19A) with A19H, E185A
Text: as §1

AaLpxC [4] = biological target: T4, AaLpxC (Aquifex aeolicus, UniProt O67648, K227A)
T4 construct: gene lpxC; codon-optimised gene in pET-21a (NdeI/XhoI), E. coli BL21(DE3); approx. 32 kDa; Zn2+ enzyme; last five residues LTRLE disordered in crystal
T4 sequence (O67648 1-271 K227A): T1 sequence (O67648 1-271 H19A) with A19H, K227A
Text: as §1

AaLpxC [5] = biological target: T5, AaLpxC (Aquifex aeolicus, UniProt O67648, T203A)
T5 construct: gene lpxC; codon-optimised gene in pET-21a (NdeI/XhoI), E. coli BL21(DE3); approx. 32 kDa; Zn2+ enzyme; last five residues LTRLE disordered in crystal
T5 sequence (O67648 1-271 T203A): T1 sequence (O67648 1-271 H19A) with A19H, T203A
Text: as §1

AaLpxC [6] = biological target: T6, AaLpxC (Aquifex aeolicus, UniProt O67648, F180A)
T6 construct: gene lpxC; codon-optimised gene in pET-21a (NdeI/XhoI), E. coli BL21(DE3); approx. 32 kDa; Zn2+ enzyme; last five residues LTRLE disordered in crystal
T6 sequence (O67648 1-271 F180A): T1 sequence (O67648 1-271 H19A) with A19H, F180A
Text: as §1

AaLpxC [7] = biological target: T7, AaLpxC (Aquifex aeolicus, UniProt O67648)
T7 construct: gene lpxC; codon-optimised gene in pET-21a (NdeI/XhoI), E. coli BL21(DE3); approx. 32 kDa; Zn2+ enzyme; last five residues LTRLE disordered in crystal
T7 sequence (O67648 1-271): T1 sequence (O67648 1-271 H19A) with A19H
Text: as §1

AaLpxC [8] = biological target: T8, AaLpxC (Aquifex aeolicus, UniProt O67648, I189A)
T8 construct: gene lpxC; codon-optimised gene in pET-21a (NdeI/XhoI), E. coli BL21(DE3); approx. 32 kDa; Zn2+ enzyme; last five residues LTRLE disordered in crystal
T8 sequence (O67648 1-271 I189A): T1 sequence (O67648 1-271 H19A) with A19H, I189A
Text: as §1

AaLpxC [9] = biological target: T9, AaLpxC (Aquifex aeolicus, UniProt O67648, E73A)
T9 construct: gene lpxC; codon-optimised gene in pET-21a (NdeI/XhoI), E. coli BL21(DE3); approx. 32 kDa; Zn2+ enzyme; last five residues LTRLE disordered in crystal
T9 sequence (O67648 1-271 E73A): T1 sequence (O67648 1-271 H19A) with A19H, E73A
Text: as §1

AaLpxC [10] = biological target: T10, AaLpxC (Aquifex aeolicus, UniProt O67648, S59A)
T10 construct: gene lpxC; codon-optimised gene in pET-21a (NdeI/XhoI), E. coli BL21(DE3); approx. 32 kDa; Zn2+ enzyme; last five residues LTRLE disordered in crystal
T10 sequence (O67648 1-271 S59A): T1 sequence (O67648 1-271 H19A) with A19H, S59A
Text: as §1

AaLpxC [11] = biological target: T11, AaLpxC (Aquifex aeolicus, UniProt O67648, I186A)
T11 construct: gene lpxC; codon-optimised gene in pET-21a (NdeI/XhoI), E. coli BL21(DE3); approx. 32 kDa; Zn2+ enzyme; last five residues LTRLE disordered in crystal
T11 sequence (O67648 1-271 I186A): T1 sequence (O67648 1-271 H19A) with A19H, I186A
Text: as §1

CC(C)(N)[C@H](NC(=O)c1ccc(C#CC#C[C@@H]2C[C@H]2CO)cc1)C(=O)NO [ACHN-975]
Kd (AaLpxC [1]): 400 ± 200 nM | Kd (AaLpxC [2]): 400 ± 300 nM | Kd (AaLpxC [3]): 60 ± 30 nM | Kd (AaLpxC [4]): 100 ± 80 nM | Kd (AaLpxC [5]): 2000 ± 1400 nM | Kd (AaLpxC [6]): 90 ± 70 nM | Kd (AaLpxC [7]): 400 ± 100 nM | Kd (AaLpxC [8]): 100 ± 90 nM | Kd (AaLpxC [9]): 70 ± 50 nM | Kd (AaLpxC [10]): 400 ± 100 nM | Kd (AaLpxC [11]): 200 ± 90 nM

— PMC7962117, “The Complex Structure of Protein AaLpxC from Aquifex aeolicus with ACHN-975 Molecule Suggests an Inhibitory Mechanism at Atomic-Level against Gram-Negative Bacteria” (Molecules, 2021)
